Measurements taken from patent US9029337B2, “Modulation of factor 7 expression” (Isis Pharmaceuticals, Inc., priority 2007, dated 2015).
Strand notation (5' to 3'): a small letter for the sugar, then the base; units joined by * are phosphorothioate-linked, units joined directly phosphodiester-linked; [ ] holds rarer units or linkages, { } end groups; capitals alone tell only the bases. e = 2'-O-(2-methoxyethyl) (MOE); [5mC] = 5-methylcytosine; d = 2'-deoxy (DNA)

Each substance was assayed on human Factor 7 mRNA (assay: Antisense inhibition of human Factor 7 mRNA in HepB3 cells, 50 nM antisense oligonucleotide, lipofectin). Conditions: Table 1, 50 nM, lipofectin, approximately 24 hours, relative to untreated control cells.
Type: cell-based
Procedure: Antisense oligonucleotides targeted to a Factor 7 nucleic acid were tested for their effects on Factor 7 mRNA in vitro. Cultured HepB3 cells at a density of 4,000 cells per well were transfected using lipofectin reagent with 50 nM antisense oligonucleotide. After a treatment period of approximately 24 hours, RNA was isolated from the cells and Factor 7 mRNA levels were measured by real-time RT-PCR, as described herein. Factor 7 mRNA levels were adjusted according to total RNA content as measured by RIBOGREEN®. Results are presented as percent inhibition of Factor 7, relative to untreated control cells.
(§1) Antisense oligonucleotides targeted to a Factor 7 nucleic acid were designed and tested for their effects on Factor 7 mRNA in vitro. Certain antisense oligonucleotides from Table 3 were also retested for their effects on Factor 7 mRNA in vitro. Cultured HepB3 cells at a density of 4,000 cells per well were transfected using lipofectin reagent with 50 nM antisense oligonucleotide. After a treatment period of approximately 24 hours, RNA was isolated from the cells and Factor 7 mRNA levels were measured by real-time RT-PCR, as described herein. Human Factor 7 primer probe set RTS 2927 was used to measure mRNA levels. Factor 7 mRNA levels were adjusted according to total RNA content as measured by RIBOGREEN®. Results are presented as percent inhibition of Factor 7, relative to untreated control.
as §1, with “tested” for “tested for their effects on Factor 7 mRNA in vitro. Certain antisense oligonucleotides from Table 3 were also retested”
These gapmers were designed by creating gapmers shifted slightly upstream and downstream (i.e. “microwalk”) of the original gapmers from Table 7. Gapmers were also created with various motifs, e.g. 5-10-5 MOE, 3-14-3 MOE, and 2-13-5 MOE. These gapmers were tested in vitro. Cultured HepB3 cells at a density of 4,000 cells per well were transfected using lipofectin reagent with 50 nM antisense oligonucleotide. After a treatment period of approximately 24 hours, RNA was isolated from the cells and Factor 7 mRNA levels were measured by real-time RT-PCR. Factor 7 mRNA levels were adjusted according to total RNA content, as measured by RIBOGREEN®. Results are presented as percent inhibition of Factor 7, relative to untreated control cells.

| Substance | % Inhibition [%] |
| --- | --- |
| 407889 (antisense eT*e[5mC]*e[5mC]*eT*eG*dG*dG*dT*dT*dA*d[5mC]*dG*dA*dA*dG*eA*e[5mC]*eT*eG*e[5mC]) [compound 407889] | 54 |
| 407890 (antisense e[5mC]*eA*eG*eG*eG*dA*dG*d[5mC]*d[5mC]*d[5mC]*dG*dG*d[5mC]*d[5mC]*dG*e[5mC]*eA*eG*e[5mC]*eT) [compound 407890] | 60 |
| 407891 (antisense e[5mC]*eA*eT*eG*eG*dA*d[5mC]*dT*dT*dG*dA*dG*dG*d[5mC]*dA*e[5mC]*eA*e[5mC]*eT*eG) [compound 407891] | 66 |
| 407892 (antisense e[5mC]*e[5mC]*e[5mC]*e[5mC]*eA*dT*dT*d[5mC]*dT*dG*dG*d[5mC]*dA*dT*dG*eG*eA*e[5mC]*eT*eT) [compound 407892] | 68 |
| 407893 (antisense eT*e[5mC]*eG*eA*eA*dG*dG*d[5mC]*dA*dG*dG*dG*dA*dG*dG*e[5mC]*eA*eG*eA*eA) [compound 407893] | 33 |
| 407894 (antisense eG*eT*eT*e[5mC]*e[5mC]*dG*dG*d[5mC]*d[5mC]*d[5mC]*dT*d[5mC]*dG*dA*dA*eG*eG*e[5mC]*eA*eG) [compound 407894] | 77 |
| 407895 (antisense e[5mC]*eA*e[5mC]*eA*e[5mC]*dA*dG*dA*dT*d[5mC]*dA*dG*d[5mC]*dT*dG*eG*eT*e[5mC]*eA*eT) [compound 407895] | 72 |
| 407896 (antisense e[5mC]*eG*eT*eG*eT*dG*dG*dT*d[5mC]*dA*d[5mC]*dT*dG*d[5mC]*dA*eG*eT*eA*e[5mC]*eT) [compound 407896] | 73 |
| 407897 (antisense eG*e[5mC]*eT*eT*eG*dG*dT*dG*d[5mC]*d[5mC]*d[5mC]*dG*dT*dG*dT*eG*eG*eT*e[5mC]*eA) [compound 407897] | 77 |
| 407898 (antisense e[5mC]*e[5mC]*eA*eG*e[5mC]*dA*dG*dA*dG*dA*dG*dT*dA*d[5mC]*d[5mC]*e[5mC]*e[5mC]*eT*e[5mC]*eG) [compound 407898] | 49 |
| 407901 (antisense eT*eG*eG*eT*eG*dT*dT*dG*dA*dT*d[5mC]*dA*dG*dG*dG*eT*e[5mC]*e[5mC]*e[5mC]*e[5mC]) [compound 407901] | 89 |
| 407902 (antisense e[5mC]*eA*e[5mC]*e[5mC]*e[5mC]*dA*dG*dA*dT*dG*dG*dT*dG*dT*dT*eG*eA*eT*e[5mC]*eA) [compound 407902] | 86 |
| 407903 (antisense e[5mC]*e[5mC]*eG*e[5mC]*eG*dG*dA*dG*dA*d[5mC]*d[5mC]*dA*d[5mC]*d[5mC]*d[5mC]*eA*eG*eA*eT*eG) [compound 407903] | 98 |
| 407904 (antisense eG*eA*eA*eA*e[5mC]*dA*dG*dT*dG*dG*dG*d[5mC]*d[5mC]*dG*d[5mC]*eG*eG*eA*eG*eA) [compound 407904] | 83 |
| 407905 (antisense e[5mC]*e[5mC]*eA*eG*eT*dT*d[5mC]*dT*dT*dG*dA*dT*dT*dT*dT*eG*eT*e[5mC]*eG*eA) [compound 407905] | 40 |
| 407906 (antisense eA*e[5mC]*e[5mC]*eA*e[5mC]*dG*dG*dG*d[5mC]*dT*dG*dG*dT*dG*d[5mC]*eA*eG*eG*e[5mC]*eG) [compound 407906] | 4 |
| 407907 (antisense eA*eA*eT*eG*eA*dG*dA*dA*dG*d[5mC]*dG*d[5mC]*dA*d[5mC]*dG*eA*eA*eG*eG*e[5mC]) [compound 407907] | 35 |
| 407908 (antisense e[5mC]*e[5mC]*e[5mC]*e[5mC]*eA*dG*d[5mC]*d[5mC]*dG*d[5mC]*dT*dG*dA*d[5mC]*d[5mC]*eA*eA*eT*eG*eA) [compound 407908] | 47 |
